Source: patent US20100160454A1, “ANTIMICROBIAL AGENTS, COMPOSITIONS AND PRODUCTS CONTAINING THE SAME, AND METHODS OF USING THE COMPOSITIONS AND PRODUCTS” (Eastman Chemical Company, priority 2008, published 2010)

Experiments:
Assay in all cases: Microbiological challenge testing in BPW broth, graded subculture counts
Type in all cases: cell-based
[1] = test system: Proteus vulgaris Wild type
Summary of the method: (§1)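 Serial 1:10 dilutions were made in pH 7.2 phosphate buffer and spread-plated onto PCA, and colonies were counted after 48 h or more at 35 °C. In the challenge, BPW–dextrose tubes containing the test material received inoculum at 10^5–10^6 CFU/mL at time zero. Controls without test material served as reference.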

[2] = test system: Pseudomonas aeruginosa Wild type; conditions: P. aeruginosa
Summary of the method: as §1

[3] = test system: Staphylococcus aureus ATCC 25923; conditions: S. aureus
Summary of the method: as §1

[4] = test system: Staphylococcus epidermidis ATCC 12228
Summary of the method: as §1

## CC(O)CO (stereo not drawn) [PG, propylene glycol]
[1]; 2.5% weight/volume
  P. vulgaris growth grade, 3 day: 4 (1000 to 10,000 colonies countable (thus 10,000 CFU/mL to 100,000 CFU/mL))
  P. vulgaris growth grade, 13 day: 4 (1000 to 10,000 colonies countable (thus 10,000 CFU/mL to 100,000 CFU/mL))
  P. vulgaris growth grade, 30 day: 4 (1000 to 10,000 colonies countable (thus 10,000 CFU/mL to 100,000 CFU/mL))
[1]; 5.0% weight/volume
  P. vulgaris growth grade, 3 day: 4 (1000 to 10,000 colonies countable (thus 10,000 CFU/mL to 100,000 CFU/mL))
  P. vulgaris growth grade, 13 day: 4 (1000 to 10,000 colonies countable (thus 10,000 CFU/mL to 100,000 CFU/mL))
  P. vulgaris growth grade, 30 day: 4 (1000 to 10,000 colonies countable (thus 10,000 CFU/mL to 100,000 CFU/mL))
[2]; 0.5% (wt/vol), 3 day
  Grade: 4 (1000 to 10,000 colonies countable (thus 10,000 CFU/mL to 100,000 CFU/mL))
[2]; 0.5% (wt/vol), 13 day
  Grade: 4 (1000 to 10,000 colonies countable (thus 10,000 CFU/mL to 100,000 CFU/mL))
[2]; 0.5% (wt/vol), 30 day
  Grade: 5 (More than 10,000 colonies estimated (thus more than 100,000 CFU/mL))
[2]; 1.25% (wt/vol), 3 day
  Grade: 4 (1000 to 10,000 colonies countable (thus 10,000 CFU/mL to 100,000 CFU/mL))
[2]; 1.25% (wt/vol), 13 day
  Grade: 4 (1000 to 10,000 colonies countable (thus 10,000 CFU/mL to 100,000 CFU/mL))
[2]; 1.25% (wt/vol), 30 day
  Grade: 4 (1000 to 10,000 colonies countable (thus 10,000 CFU/mL to 100,000 CFU/mL))
[2]; 2.5% (wt/vol), 3 day
  Grade: 4 (1000 to 10,000 colonies countable (thus 10,000 CFU/mL to 100,000 CFU/mL))
[2]; 2.5% (wt/vol), 13 day
  Grade: 4 (1000 to 10,000 colonies countable (thus 10,000 CFU/mL to 100,000 CFU/mL))
[2]; 2.5% (wt/vol), 30 day
  Grade: 4 (1000 to 10,000 colonies countable (thus 10,000 CFU/mL to 100,000 CFU/mL))
[2]; 5.0% (wt/vol), 3 day
  Grade: 4 (1000 to 10,000 colonies countable (thus 10,000 CFU/mL to 100,000 CFU/mL))
[2]; 5.0% (wt/vol), 13 day
  Grade: 4 (1000 to 10,000 colonies countable (thus 10,000 CFU/mL to 100,000 CFU/mL))
[2]; 5.0% (wt/vol), 30 day
  Grade: 4 (1000 to 10,000 colonies countable (thus 10,000 CFU/mL to 100,000 CFU/mL))
[3]; 0.5% (wt/vol), 3 day
  Grade: 5 (More than 10,000 colonies estimated (thus more than 100,000 CFU/mL))
[3]; 0.5% (wt/vol), 14 day
  Grade: 4 (1000 to 10,000 colonies countable (thus 10,000 CFU/mL to 100,000 CFU/mL))
[3]; 0.5% (wt/vol), 30 day
  Grade: 4 (1000 to 10,000 colonies countable (thus 10,000 CFU/mL to 100,000 CFU/mL))
[3]; 1.25% (wt/vol), 3 day
  Grade: 4 (1000 to 10,000 colonies countable (thus 10,000 CFU/mL to 100,000 CFU/mL))
[3]; 1.25% (wt/vol), 14 day
  Grade: 4 (1000 to 10,000 colonies countable (thus 10,000 CFU/mL to 100,000 CFU/mL))
[3]; 1.25% (wt/vol), 30 day
  Grade: 4 (1000 to 10,000 colonies countable (thus 10,000 CFU/mL to 100,000 CFU/mL))
[3]; 2.5% (wt/vol), 3 day
  Grade: 4 (1000 to 10,000 colonies countable (thus 10,000 CFU/mL to 100,000 CFU/mL))
[3]; 2.5% (wt/vol), 14 day
  Grade: 4 (1000 to 10,000 colonies countable (thus 10,000 CFU/mL to 100,000 CFU/mL))
[3]; 2.5% (wt/vol), 30 day
  Grade: 4 (1000 to 10,000 colonies countable (thus 10,000 CFU/mL to 100,000 CFU/mL))
[3]; 5.0% (wt/vol), 3 day
  Grade: 4 (1000 to 10,000 colonies countable (thus 10,000 CFU/mL to 100,000 CFU/mL))
[3]; 5.0% (wt/vol), 14 day
  Grade: 4 (1000 to 10,000 colonies countable (thus 10,000 CFU/mL to 100,000 CFU/mL))
[3]; 5.0% (wt/vol), 30 day
  Grade: 4 (1000 to 10,000 colonies countable (thus 10,000 CFU/mL to 100,000 CFU/mL))
[4]; 0.5% weight/volume
  S. epidermidis growth grade, 3 day: 5 (More than 10,000 colonies estimated (thus more than 100,000 CFU/mL))
  S. epidermidis growth grade, 13 day: 5 (More than 10,000 colonies estimated (thus more than 100,000 CFU/mL))
  S. epidermidis growth grade, 30 day: 5 (More than 10,000 colonies estimated (thus more than 100,000 CFU/mL))
[4]; 1.25% weight/volume
  S. epidermidis growth grade, 3 day: 4 (1000 to 10,000 colonies countable (thus 10,000 CFU/mL to 100,000 CFU/mL))
  S. epidermidis growth grade, 13 day: 4 (1000 to 10,000 colonies countable (thus 10,000 CFU/mL to 100,000 CFU/mL))
  S. epidermidis growth grade, 30 day: 4 (1000 to 10,000 colonies countable (thus 10,000 CFU/mL to 100,000 CFU/mL))
[4]; 2.5% weight/volume
  S. epidermidis growth grade, 3 day: 4 (1000 to 10,000 colonies countable (thus 10,000 CFU/mL to 100,000 CFU/mL))
  S. epidermidis growth grade, 13 day: 4 (1000 to 10,000 colonies countable (thus 10,000 CFU/mL to 100,000 CFU/mL))
  S. epidermidis growth grade, 30 day: 4 (1000 to 10,000 colonies countable (thus 10,000 CFU/mL to 100,000 CFU/mL))
[4]; 5.0% weight/volume
  S. epidermidis growth grade, 3 day: 4 (1000 to 10,000 colonies countable (thus 10,000 CFU/mL to 100,000 CFU/mL))
  S. epidermidis growth grade, 13 day: 4 (1000 to 10,000 colonies countable (thus 10,000 CFU/mL to 100,000 CFU/mL))
  S. epidermidis growth grade, 30 day: 4 (1000 to 10,000 colonies countable (thus 10,000 CFU/mL to 100,000 CFU/mL))
